Test results from patent US10266549B2, “ULK1 inhibitors and methods using same” (SALK INSTITUTE FOR BIOLOGICAL STUDIES, priority 2014, dated 2019).

tested on: A549 lung cancer cells; test: AnnexinV apoptosis analysis in A549 cells with mTOR inhibitor; format: cell-based; details: AZD8055 alone, 1 micromolar
Description: A549 cells (ATCC #CCL185) and MEFs were seeded at a concentration of 2.5×10^5 cells/mL (i.e., 750,000 cells per 6 cm dish), grown overnight (18 hrs) and treated as indicted in the figure legends. Unless otherwise indicated, “starvation” is EBSS and “control” is DMEM with full serum for indicated timepoints. Samples for western blot were washed once in 1× ice cold PBS and lysed in boiling SDS lysis buffer (10 mM Tris […], 100 mM NaCl, 1% SDS). After trituration, lysates were equilibrated for protein levels using the BCA method (Pierce) and resolved on 8 to 15% SDS-PAGE gels, depending on the size of the protein. PVDF membranes were probed with indicated antibodies overnight according to the manufacturers instructions.
For flow cytometry analysis, cells were collected at the appropriate time point, washed once in PBS, trypsinized and pelleted. For Annexin V staining, cells were washed in 1× Annexin V buffer and treated as described by the Annexin V staining protocol (BD Pharmingen, San Diego, Calif.). Briefly, cells were resuspended in Annexin V buffer to a concentration of one million per mL, 100,000 cells were then stained with 5 μL of phycoerythrin (PE)-conjugated Annexin V antibody (BD Pharmingen, San Diego, Calif.) and 5 μL of 7-amino-actinomycin D (7AAD) and then incubated at room temperature for 15 minutes. 400 μL of Annexin V buffer was then added to each sample with gentle mixing. Stained cells were analyzed using a FACScan flow cytometer (Becton Dickinson, San Jose, Calif.). Flow cytometry data was analyzed using FlowJo 8.6 software (Tree Star Inc., Ashland, Oreg.).
There has been great interest in the role of autophagy in the survival of tumor cells, particular tumor cells faced with metabolic stress from chemotherapies or targeted therapeutics. We next examined whether compound 14 would promote apoptosis in tumor cells similar to the MEFs, selectively under conditions in which autophagy is actively engaged. […] Given that mTOR activity is a dominant regulator of ULK1 activity, and we previously noted that treatment of cells with mTOR catalytic inhibitors was sufficient to induce ULK1 activity, we examined the effect of adding in the ULK1 inhibitor in the context of treatment with mTOR catalytic inhibitors. Using a cell line well-established to be sensitive to mTORC1 inhibition, A549 lung cancer cells, we treated with escalating doses of ULK1 inhibitor while keeping a constant cytostatic growth arrest-inducing 1 micromolar dose of the mTOR catalytic inhibitor AZD8055. We observed that 5 μM compound 14 in combination with AZD8055 triggered apoptosis in 22% of A549 cells compared to 9% of the 5 μM compound 14 alone or 6% of those cells treated with AZD8055 alone. […]

**Q.** For `COc1ccc(-c2ccc3c(N4CCOC[C@@H]4C)nc(N4CCOC[C@@H]4C)nc3n2)cc1CO` [AZD8055, (5-(2,4-bis((S)-3-methylmorpholino)pyrido[2,3-d]pyrimidin-7-yl)-2-methoxyphenyl)methanol, reference compound], which “apoptosis, % of A549 cells” value is on record?
**A.** 6%

target: ULK1 (Homo sapiens (Human), UniProt O75385); test: ULK1 inhibition assay (Table 1); format: biochemical; details: * = tested as a mixture of regioisomers
Sequence (O75385 whole entry, species assumed): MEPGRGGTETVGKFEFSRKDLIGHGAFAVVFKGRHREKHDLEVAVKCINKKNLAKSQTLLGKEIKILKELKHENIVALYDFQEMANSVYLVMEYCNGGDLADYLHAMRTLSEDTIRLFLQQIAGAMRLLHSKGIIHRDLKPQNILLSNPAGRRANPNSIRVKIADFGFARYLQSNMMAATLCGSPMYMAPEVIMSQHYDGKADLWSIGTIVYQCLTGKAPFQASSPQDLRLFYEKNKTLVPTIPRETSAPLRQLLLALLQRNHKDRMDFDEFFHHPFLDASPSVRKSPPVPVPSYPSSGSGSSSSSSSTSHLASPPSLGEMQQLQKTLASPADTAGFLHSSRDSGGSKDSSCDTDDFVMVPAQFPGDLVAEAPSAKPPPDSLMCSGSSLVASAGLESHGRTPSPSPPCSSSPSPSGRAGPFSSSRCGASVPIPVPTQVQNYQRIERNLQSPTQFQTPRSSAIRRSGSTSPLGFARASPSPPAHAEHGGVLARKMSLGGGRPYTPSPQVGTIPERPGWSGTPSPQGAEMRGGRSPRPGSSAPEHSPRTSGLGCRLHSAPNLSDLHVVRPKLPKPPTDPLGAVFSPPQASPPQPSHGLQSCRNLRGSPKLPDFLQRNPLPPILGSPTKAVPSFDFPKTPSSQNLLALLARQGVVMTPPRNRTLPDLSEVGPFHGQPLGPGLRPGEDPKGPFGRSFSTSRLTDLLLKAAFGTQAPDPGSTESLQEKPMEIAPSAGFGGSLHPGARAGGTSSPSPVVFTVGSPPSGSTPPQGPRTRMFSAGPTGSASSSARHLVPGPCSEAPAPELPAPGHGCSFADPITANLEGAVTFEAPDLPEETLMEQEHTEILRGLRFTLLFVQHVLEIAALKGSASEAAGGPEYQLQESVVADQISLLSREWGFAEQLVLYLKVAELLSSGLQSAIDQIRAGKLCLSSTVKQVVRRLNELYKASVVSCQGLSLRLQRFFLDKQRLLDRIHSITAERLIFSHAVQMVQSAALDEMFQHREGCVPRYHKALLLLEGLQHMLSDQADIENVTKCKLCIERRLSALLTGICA

**Q.** For `FC(F)(F)c1cnc(NC2CC2)nc1NC1CC1` [compound 169, N^2,N^4-dicyclopropyl-5-(trifluoromethyl)pyrimidine-2,4-diamine], which IC50 is on record?
**A.** > 2000 nM

**Q.** Which IC50 does the source give for `CNC(=O)c1ccccc1Oc1nc(Nc2cc(OC)ccc2C)ncc1Br` [compound 170, 2-((5-bromo-2-((5-methoxy-2-methylphenyl)amino)pyrimidin-4-yl)oxy)-N-methylbenzamide] here?
**A.** > 2000 nM

**Q.** `COc1nc(Nc2cccc(C(F)(F)F)c2F)ncc1Br` [compound 172, 5-bromo-N-(2-fluoro-3-(trifluoromethyl)phenyl)-4-methoxy pyrimidin-2-amine] was tested. Which IC50 did it give?
**A.** 200 to 2000 nM

**Q.** `CCCCOc1nc(Nc2cc(OC)c(OC)c(OC)c2)ncc1Br` [compound 173, 5-bromo-4-butoxy-N-(3,4,5-trimethoxyphenyl)pyrimidin-2-amine] was tested. Which IC50 did it give?
**A.** < 200 nM

**Q.** With `Brc1cnc(Nc2cnc3[nH]ccc3c2)nc1NC1CC1` [compound 174, 5-bromo-N4-cyclopropyl-N2-(1H-pyrrolo[2,3-b]pyridin-5-yl)pyrimidine-2,4-diamine] as the molecule, how does the IC50 read?
**A.** < 200 nM

**Q.** With `O=C1CCc2cc(Nc3ncc(C(F)(F)F)c(OC4CCC4)n3)ccc2N1` [compound 175, 6-((4-cyclobutoxy-5-(trifluoromethyl)pyrimidin-2-yl)amino)-3,4-dihydroquinolin-2(1H)-one] as the molecule, how does the IC50 read?
**A.** < 200 nM

**Q.** Which IC50 does the source give for `FC(F)(F)c1cnc(Nc2cnc3[nH]ccc3c2)nc1Nc1ccc2c(c1)OCO2` [compound 177, N4-(benzo[d][1,3]dioxol-5-yl)-N2-(1H-pyrrolo[2,3-b]pyridin-5-yl)-5-(trifluoromethyl)pyrimidine-2,4-diamine] here?
**A.** < 200 nM

**Q.** For `COCCNc1nc(Nc2cnc3[nH]ccc3c2)ncc1C(F)(F)F` [compound 179, N4-(2-methoxyethyl)-N2-(1H-pyrrolo[2,3-b]pyridin-5-yl)-5-(trifluoromethyl)pyrimidine-2,4-diamine], which IC50 is on record?
**A.** 200 to 2000 nM

**Q.** With “N2-(2-methoxy-5-methylphenyl)-N4-(3-(methylsulfonyl) benzyl)-5-(trifluoromethyl)pyrimidine-2,4-diamine [compound 50]” as the molecule, how does the IC50 read?
**A.** > 2000 nM

tested on: PC3 human prostate cells stably expressing GFP-LC3; test: GFP-LC3 puncta quantification in PC3 cells; format: cell-based; details: PC3 GFP-LC3, control siRNAs, 1 μM mTOR inhibitor for 4 hr
Description: At 48 hr after RNAi transfection, the cells were treated with 1 μM of the catalytic mTOR inhibitors AZD8055 or INK128 for 4 hr and assessed for the presence of GFP-LC3 puncta. The average number of GFPLC3 puncta and SD for each siRNA and drug treatment are shown. SRC, c-Src; c-Src kinase, CSK.
To test the ability of compound 14 to block autophagy and cell survival, initial studies were performed in A549 lung cancer cells, which are highly sensitive to mTOR inhibition. […] Next, we genetically assessed the requirement for ULK1 versus other kinases inhibited by compound 14 to induce autophagy after pharmacological mTOR inhibition. A robust high-throughput microscopy method for quantifying GFP-LC3 puncta was established using a PC3 prostate-cancer cell line stably expressing a GFP-LC3 construct. Using this assay, we performed a focused RNAi analysis of the top 20 kinases identified in the DiscovRx screen as best binding to compound 14. […] Strikingly, of the 18 kinases tested, only one kinase siRNA, ULK1, nearly fully abolished the LC3 puncta induced by the mTOR inhibitors (FIG. 9D).

**Q.** `COc1ccc(-c2ccc3c(N4CCOC[C@@H]4C)nc(N4CCOC[C@@H]4C)nc3n2)cc1CO` [AZD8055, (5-(2,4-bis((S)-3-methylmorpholino)pyrido[2,3-d]pyrimidin-7-yl)-2-methoxyphenyl)methanol, reference compound] was tested. Which “induction in GFP-LC3 puncta formation” value did it give?
**A.** 2 fold

**Q.** With `CC(C)n1nc(-c2ccc3oc(N)nc3c2)c2c(N)ncnc21` [INK128, 3-(2-amino-5-benzoxazolyl)-1-(1-methylethyl)-1H-pyrazolo[3,4-d]pyrimidin-4-amine] as the molecule, how does the “induction in GFP-LC3 puncta formation” value read?
**A.** 2 fold
